Consider 71 compounds from patent publication US7262212B2, “2,3-dihydro-6-nitroimidazo[2,1-b]oxazoles” (Otsuka Pharmaceutical Co., Ltd., priority 2002, dated 2007).

For orientation: melting point means the temperature of the solid-liquid transition. Regarding `CC(C)(C)OC(=O)N1CCN(C(=O)OC[C@@]2(C)Cn3cc([N+](=O)[O-])nc3O2)CC1`, the melting point was 211 to 212 °C.

For the compound `O=C(Nc1ccc(Cl)cc1)N1CCC2(CC1)Cn1cc([N+](=O)[O-])nc1O2`, the melting point is 249 to 252 °C (dec.).

As for `CC(C)(C)OC(=O)N1CCN(C(=O)c2ccc(OC[C@@]3(C)Cn4cc([N+](=O)[O-])nc4O3)cc2)CC1`, the melting point was in the range of 222.5 to 224 °C.

The compound `C[C@]1(CN2CCC(N3CCN(Cc4ccc(OC(F)(F)F)cc4)CC3)CC2)Cn2cc([N+](=O)[O-])nc2O1` displayed a melting point of 142 to 143 °C.

Regarding `CC(C)(C)OC(=O)N1CCN(c2ccc(OC[C@@]3(C)Cn4cc([N+](=O)[O-])nc4O3)cc2Cl)CC1`, the melting point fell in the range of 207 to 209.5 °C.

`C[C@]1(CN2CCC(N3CCC(Oc4ccc(OC(F)(F)F)cc4)CC3)CC2)Cn2cc([N+](=O)[O-])nc2O1` had a melting point of 131 to 132 °C.

`C[C@]1(CN2CCN(C3CCN(C(=O)OCc4ccc(OC(F)(F)F)cc4)CC3)CC2)Cn2cc([N+](=O)[O-])nc2O1` showed a melting point of 105 to 106 °C.

As to `CC(C)(C)OC(=O)N1CCN(c2cccc(OC[C@@]3(C)Cn4cc([N+](=O)[O-])nc4O3)c2)CC1`, the melting point is 179.5 to 182 °C.

For the compound `CC(C)(C)OC(=O)N1CCN(c2ccc(OC[C@@]3(C)Cn4cc([N+](=O)[O-])nc4O3)cc2)CC1`, the melting point is 230 to 232 °C.

The compound `C[C@]1(COc2ccc(N3CCN(C(=O)OCc4ccc(Cl)cc4)CC3)cc2)Cn2cc([N+](=O)[O-])nc2O1` showed a melting point of 184.5 to 187.5 °C.

`C[C@]1(COc2cccc(N3CCN(C(=O)OCc4ccc(OC(F)(F)F)cc4)CC3)c2)Cn2cc([N+](=O)[O-])nc2O1` returned a melting point of 136.5 to 138 °C.

`C[C@]1(COc2ccc(C3CCN(Cc4ccc(OC(F)(F)F)cc4)CC3)cc2)Cn2cc([N+](=O)[O-])nc2O1` registered a melting point of 186 to 188 °C.

For the compound `C[C@]1(COc2ccc(C3=CCN(Cc4ccc(OC(F)(F)F)cc4)CC3)cc2)Cn2cc([N+](=O)[O-])nc2O1`, the melting point fell in the range of 168 to 174 °C.

In turn, `C[C@]1(COc2ccc(N3CCN(C(=O)c4ccc(OC(F)(F)F)cc4)CC3)cc2)Cn2cc([N+](=O)[O-])nc2O1` displayed a melting point of 201.5 to 203.2 °C.

The compound `CN(CCOc1ccc(C(F)(F)F)cc1)C[C@@]1(C)Cn2cc([N+](=O)[O-])nc2O1` came in with a melting point of 123 to 126 °C.

For the compound `CN(CCN(C)c1ccc(C(F)(F)F)cc1)C[C@@]1(C)Cn2cc([N+](=O)[O-])nc2O1`, the melting point fell in the range of 135.5 to 137.5 °C.

Compound `CN(CCN1CCN(C(=O)OC(C)(C)C)CC1)C[C@@]1(C)Cn2cc([N+](=O)[O-])nc2O1` had a melting point of 149.5 to 151.8 °C.

Compound `CN(C[C@@]1(C)Cn2cc([N+](=O)[O-])nc2O1)c1ccccc1` yielded a melting point of 147 to 148 °C.

Compound `CC1(CNC(=O)OCc2ccccc2)Cn2cc([N+](=O)[O-])nc2O1` (centres unmarked) displayed a melting point of 171.3 to 172.2 °C.

In turn, `CN(CC1(C)Cn2cc([N+](=O)[O-])nc2O1)C(=O)OCc1ccccc1` (centres unmarked) displayed a melting point of 150.3 to 151.6 °C.

`CCOC(=O)NCC1(C)Cn2cc([N+](=O)[O-])nc2O1` (centres unmarked) displayed a melting point of 182.5 to 183.4 °C.

`O=C(NCC1Cn2cc([N+](=O)[O-])nc2O1)OCc1ccc(F)cc1` (centres unmarked) yielded a melting point of 164.6 to 165.1 °C.

The compound `CNC(C1CCN(C(=O)OCc2ccc(OC(F)(F)F)cc2)CC1)[C@]1(C)Cn2cc([N+](=O)[O-])nc2O1` (some centres unmarked) showed a melting point of 84.2 to 86.8 °C.

With `CN(C(=O)OCc1ccccc1)C1CCN(CC2(C)Cn3cc([N+](=O)[O-])nc3O2)CC1` (centres unmarked), the melting point is 138.7 to 139.2 °C.

As to `CN(C(=O)OCc1ccc(Cl)cc1)C1CCN(CC2(C)Cn3cc([N+](=O)[O-])nc3O2)CC1` (centres unmarked), the melting point was 147.2 to 149.2 °C.

`CC1(CN2CCC(Cc3ccc(OC(F)(F)F)cc3)CC2)Cn2cc([N+](=O)[O-])nc2O1` (centres unmarked) displayed a melting point of 143.5 to 145 °C.

`CC1(CN2CCC(C(=O)c3ccc(Cl)cc3)CC2)Cn2cc([N+](=O)[O-])nc2O1` (centres unmarked) came in with a melting point of 165 to 167 °C.

For `C[C@]1(CN2CCC(Cc3ccc(OC(F)(F)F)cc3)CC2)Cn2cc([N+](=O)[O-])nc2O1`, the melting point was in the range of 111 to 112.5 °C.

As to `C[C@]1(CN2CCC(N3CCCCC3)CC2)Cn2cc([N+](=O)[O-])nc2O1`, the melting point is 163.4 to 164.9 °C.

The compound `C[C@]1(CN2CCC(c3ccc(C(F)(F)F)cc3)CC2)Cn2cc([N+](=O)[O-])nc2O1` returned a melting point of 138.7 to 139.9 °C.

In turn, `C[C@]1(CN2CCC(OCCc3ccc(C(F)(F)F)cc3)CC2)Cn2cc([N+](=O)[O-])nc2O1` had a melting point of 84.6 to 86.8 °C.

Compound `C[C@]1(CN2CCC(OCCc3ccc(Cl)cc3)CC2)Cn2cc([N+](=O)[O-])nc2O1` had a melting point of 92.5 to 94 °C.

In turn, `CC(C)COC(=O)N1CCN(CC2(C)Cn3cc([N+](=O)[O-])nc3O2)CC1` (centres unmarked) displayed a melting point of 176.5 to 177.3 °C.

As for `CC1(CO)Cn2cc([N+](=O)[O-])nc2O1` (centres unmarked), the melting point lay within 166 to 168 °C.

Take `CC1(CCN2CCN(C(=O)OCc3ccc(C(F)(F)F)cc3)CC2)Cn2cc([N+](=O)[O-])nc2O1` (centres unmarked): the melting point is 139 to 140 °C.

With `CC(=O)c1ccc(COC(=O)N2CCN(CC3(C)Cn4cc([N+](=O)[O-])nc4O3)CC2)cc1` (centres unmarked), the melting point was 101 to 102 °C.

For the compound `CC1(CN2CCN(C(=O)OCc3ccc(C(=O)c4ccccc4)cc3)CC2)Cn2cc([N+](=O)[O-])nc2O1` (centres unmarked), the melting point is 105 to 107 °C.

`O=[N+]([O-])c1cn2c(n1)O[C@@H](CN1CCN(Cc3ccc(-c4ccccc4)cc3)CC1)C2`: the melting point lay in the range of 207 to 208 °C.

`O=[N+]([O-])c1cn2c(n1)O[C@H](CN1CCN(Cc3ccc(-c4ccccc4)cc3)CC1)C2` returned a melting point of 224 to 225 °C.

`C[C@]1(CN2CCN(Cc3ccc(OC(F)(F)F)cc3)CC2)Cn2cc([N+](=O)[O-])nc2O1` had a melting point of 137 to 138 °C.

On to `CC1(CN2CCN(C(=O)c3ccc(-c4ccccc4)cc3)CC2)Cn2cc([N+](=O)[O-])nc2O1` (centres unmarked), for which the melting point was in the range of 116 to 118 °C.

`CC1(CN2CCN(C(=O)COc3ccccc3)CC2)Cn2cc([N+](=O)[O-])nc2O1` (centres unmarked) returned a melting point of 158 to 160.6 °C.

Consider `CC1(CN2CCN(C(=O)Cc3ccc(Cl)cc3)CC2)Cn2cc([N+](=O)[O-])nc2O1` (centres unmarked), for which the melting point was 184 to 187 °C.

In turn, `C[C@]1(CN2CCN(C(=O)c3ccc(C(F)(F)F)cc3)CC2)Cn2cc([N+](=O)[O-])nc2O1` came in with a melting point of 183 to 184 °C.

For `C[C@]1(CN2CCN(C(=O)CCCc3ccc(C(F)(F)F)cc3)CC2)Cn2cc([N+](=O)[O-])nc2O1`, the melting point fell in the range of 145 to 146 °C.

`C[C@]1(CN2CCN(C(=O)OCC=Cc3cccc(Cl)c3)CC2)Cn2cc([N+](=O)[O-])nc2O1.O=C(O)/C=C\C(=O)O` returned a melting point of 150 to 151 °C.

In turn, `CC1(CN2CCN(C(=O)NCc3ccc(C(F)(F)F)cc3)CC2)Cn2cc([N+](=O)[O-])nc2O1` (centres unmarked) gave a melting point of 201 to 202.5 °C.

Turning to `CC1(CN2CCN(C(=O)Nc3ccc(Cl)c(C(F)(F)F)c3)CC2)Cn2cc([N+](=O)[O-])nc2O1` (centres unmarked), the melting point was in the range of 222 to 224 °C.

`C[C@]1(CN2CCN(C(=O)Nc3ccc(Cl)cc3)CC2)Cn2cc([N+](=O)[O-])nc2O1`: the melting point is 156 to 159 °C (dec.).

Consider `C[C@]1(CN2CCN(C(=O)N3CC=C(c4ccc(C(F)(F)F)cc4)CC3)CC2)Cn2cc([N+](=O)[O-])nc2O1`, for which the melting point fell in the range of 168.4 to 171.7 °C.

`CCCCCC(C=NN1CCN(CC2(C)Cn3cc([N+](=O)[O-])nc3O2)CC1)=Cc1ccccc1` (centres unmarked) gave a melting point of 166.6 to 169.6 °C.

`CC(C)(C)OC(=O)CNC(=O)OCC1(C)Cn2cc([N+](=O)[O-])nc2O1` (centres unmarked): the melting point lay within 104 to 106 °C.

Regarding `CC1(Cn2nc(-c3ccc(C(F)(F)F)cc3)oc2=O)Cn2cc([N+](=O)[O-])nc2O1` (centres unmarked), the melting point lay in the range of 230 to 231 °C.

For `CC1(Cn2nc(C=Cc3ccc(Cl)cc3)oc2=O)Cn2cc([N+](=O)[O-])nc2O1` (centres unmarked), the melting point lay within 249 to 252 °C.

In the case of `CC(C)(C)OC(=O)N1CCC(n2c(=O)n(CC3(C)Cn4cc([N+](=O)[O-])nc4O3)c3ccccc32)CC1` (centres unmarked), the melting point lay within 218 to 219.1 °C.

For `Cn1c(=O)n(CC2(C)Cn3cc([N+](=O)[O-])nc3O2)c2cc(C(F)(F)F)ccc21` (centres unmarked), the melting point lay in the range of 232.4 to 234.7 °C.

For the compound `CN(C)c1ccc2c(c1)n(CC1(C)Cn3cc([N+](=O)[O-])nc3O1)c(=O)n2C` (centres unmarked), the melting point is 264.6 to 268.3 °C (dec.).

Consider `CCOC(=O)c1ccc2c(c1)n(CC1(C)Cn3cc([N+](=O)[O-])nc3O1)c(=O)n2C` (centres unmarked), for which the melting point lay within 265.8 to 266.7 °C.

`CC1(Cn2c(=O)n(-c3ccc(F)cc3)c3ccccc32)Cn2cc([N+](=O)[O-])nc2O1` (centres unmarked) came in with a melting point of 254.1 to 254.7 °C.

`CC1(COC(=O)Nc2cccc(F)c2)Cn2cc([N+](=O)[O-])nc2O1` (centres unmarked): the melting point fell in the range of 168 to 169 °C.

Take `COc1ccc(CN2CCN(CC3(C)Cn4cc([N+](=O)[O-])nc4O3)C2=O)c(OC)c1` (centres unmarked): the melting point lay within 175 to 175.4 °C.

For the compound `CC1(COC(=O)Nc2ccc(Cl)cc2)Cn2cc([N+](=O)[O-])nc2O1` (centres unmarked), the melting point is 179 to 181 °C.

`CC1(CN2C(=O)c3ccccc3C2=O)Cn2cc([N+](=O)[O-])nc2O1` (centres unmarked) gave a melting point of 264.6 to 268.3 °C.

Regarding `CC1(CN2CCN(C(C)(C)C)C(=O)C2)Cn2cc([N+](=O)[O-])nc2O1` (centres unmarked), the melting point is 193 to 194 °C.

As for `CC1(CCCN2CCN(C(C)(C)C)C(=O)C2)Cn2cc([N+](=O)[O-])nc2O1` (centres unmarked), the melting point was 147 to 149 °C (dec.).

`C[C@]1(CN2CCC3(CC2)OCCO3)Cn2cc([N+](=O)[O-])nc2O1`: the melting point is 166.5 to 168.2 °C.

For the compound `CC(C)(C)OC(=O)N1CCN(CC(=O)N2CCC3(CC2)Cn2cc([N+](=O)[O-])nc2O3)CC1`, the melting point fell in the range of 211 to 213 °C.

In turn, `CC(=O)N1CCC2(CC1)Cn1cc([N+](=O)[O-])nc1O2` registered a melting point of 232 to 234 °C.

As for `CN1CCC2(CC1)Cn1cc([N+](=O)[O-])nc1O2`, the melting point is 237 to 239 °C (dec.).

Compound `O=C(NCc1ccc(OC(F)(F)F)cc1)N1CCC2(CC1)Cn1cc([N+](=O)[O-])nc1O2` registered a melting point of 223 to 225 °C.

In the case of `C[C@]1(CN2CCN(C(=O)OCC(F)(F)F)CC2)Cn2cc([N+](=O)[O-])nc2O1`, the melting point is 123.5 to 124 °C.
